ChEMBL document CHEMBL1221384, “Synthesis and antimicrobial activity of novel fluorine containing 4-(substituted-2-hydroxybenzoyl)-1H-pyrazoles and pyrazolyl benzo[d]oxazoles” (2010)
≈ marks a conversion by molar mass, not a printed value.

Tests used:
Assay type in all cases: functional
Bacillus subtilis = assay: Antimicrobial activity against Bacillus subtilis MTCC 441 by broth microdilution technique
Staphylococcus aureus = assay: Antimicrobial activity against Staphylococcus aureus MTCC 96 by broth microdilution technique
Escherichia coli = assay: Antimicrobial activity against Escherichia coli MTCC 443 by broth microdilution technique
Candida albicans = assay: Antimicrobial activity against Candida albicans MTCC 227 by broth serial dilution technique
Pseudomonas aeruginosa = assay: Antimicrobial activity against Pseudomonas aeruginosa MTCC 1688 by broth microdilution technique

| Compound | MIC50 (Bacillus subtilis) | MIC50 (Staphylococcus aureus) | MIC50 (Escherichia coli) | MIC50 (Candida albicans) | MIC50 (Pseudomonas aeruginosa) |
| --- | --- | --- | --- | --- | --- |
| Cc1ccc2nc(-c3cnn(-c4ccc(F)c(F)c4)c3)oc2c1 | 25 µg/mL (≈ 80.3 µM) | 200 µg/mL (≈ 642 µM) | 200 µg/mL (≈ 642 µM) | 500 µg/mL (≈ 1610 µM) | 500 µg/mL (≈ 1610 µM) |
| O=C(c1cnn(-c2ccc(F)c(F)c2)c1)c1cc(F)ccc1O | 62.5 µg/mL (≈ 196 µM) | 100 µg/mL (≈ 314 µM) | 62.5 µg/mL (≈ 196 µM) | 500 µg/mL (≈ 1570 µM) | 50 µg/mL (≈ 157 µM) |
| Cc1ccc2oc(-c3cnn(-c4ccc(F)c(F)c4)c3)nc2c1 | 200 µg/mL (≈ 642 µM) | 50 µg/mL (≈ 161 µM) | 500 µg/mL (≈ 1610 µM) | 500 µg/mL (≈ 1610 µM) | 62.5 µg/mL (≈ 201 µM) |
| O/N=C(/c1cnn(-c2ccc(F)c(F)c2)c1)c1cc(Cl)ccc1O | 62.5 µg/mL (≈ 179 µM) | 100 µg/mL (≈ 286 µM) | 12.5 µg/mL (≈ 35.7 µM) | 1000 µg/mL (≈ 2860 µM) | 125 µg/mL (≈ 357 µM) |
| O=C(c1cnn(-c2ccc(F)c(F)c2)c1)c1ccccc1O | 12.5 µg/mL (≈ 41.6 µM) | 500 µg/mL (≈ 1670 µM) | 250 µg/mL (≈ 833 µM) | 100 µg/mL (≈ 333 µM) | 555 µg/mL (≈ 1850 µM) |
| O=C(N[C@H](CO)[C@H](O)c1ccc([N+](=O)[O-])cc1)C(Cl)Cl [CHLORAMPHENICOL] | 50 µg/mL (≈ 155 µM) | 50 µg/mL (≈ 155 µM) | 50 µg/mL (≈ 155 µM) |  | 50 µg/mL (≈ 155 µM) |
| NYSTATIN |  |  |  | 100 µg/mL |  |
| Fc1ccc(-n2cc(-c3nc4cc(Cl)ccc4o3)cn2)cc1F | 200 µg/mL (≈ 603 µM) | 125 µg/mL (≈ 377 µM) | 100 µg/mL (≈ 301 µM) | 500 µg/mL (≈ 1510 µM) | 125 µg/mL (≈ 377 µM) |
| O/N=C(/c1cnn(-c2ccc(F)c(F)c2)c1)c1ccccc1O | > 1000 µg/mL | > 1000 µg/mL | 500 µg/mL (≈ 1590 µM) | 1000 µg/mL (≈ 3170 µM) | 500 µg/mL (≈ 1590 µM) |
| O=C(O)c1cn(C2CC2)c2cc(N3CCNCC3)c(F)cc2c1=O [CIPROFLOXACIN] | 50 µg/mL (≈ 151 µM) | 50 µg/mL (≈ 151 µM) | 25 µg/mL (≈ 75.4 µM) |  | 25 µg/mL (≈ 75.4 µM) |
| Cc1ccc(/C(=N\O)c2cnn(-c3ccc(F)c(F)c3)c2)c(O)c1 | 500 µg/mL (≈ 1520 µM) | 250 µg/mL (≈ 759 µM) | 25 µg/mL (≈ 75.9 µM) | 500 µg/mL (≈ 1520 µM) | 50 µg/mL (≈ 152 µM) |
| COC1=CC(=O)C[C@@H](C)[C@]12Oc1c(Cl)c(OC)cc(OC)c1C2=O [GRISEOFULVIN] |  |  |  | 500 µg/mL (≈ 1420 µM) |  |
| Cc1ccc(O)c(C(=O)c2cnn(-c3ccc(F)c(F)c3)c2)c1 | 500 µg/mL (≈ 1590 µM) | 500 µg/mL (≈ 1590 µM) | 500 µg/mL (≈ 1590 µM) | 1000 µg/mL (≈ 3180 µM) | 250 µg/mL (≈ 795 µM) |
| CC1(C)S[C@@H]2[C@H](NC(=O)[C@H](N)c3ccccc3)C(=O)N2[C@H]1C(=O)O [AMPICILLIN] | 250 µg/mL (≈ 715 µM) | 250 µg/mL (≈ 715 µM) | 100 µg/mL (≈ 286 µM) |  | 100 µg/mL (≈ 286 µM) |
| Cc1ccc(C(=O)c2cnn(-c3ccc(F)c(F)c3)c2)c(O)c1 | 100 µg/mL (≈ 318 µM) | 200 µg/mL (≈ 636 µM) | 125 µg/mL (≈ 398 µM) | 500 µg/mL (≈ 1590 µM) | 62.5 µg/mL (≈ 199 µM) |
| Fc1ccc(-n2cc(-c3nc4ccccc4o3)cn2)cc1F | 200 µg/mL (≈ 673 µM) | 125 µg/mL (≈ 421 µM) | 125 µg/mL (≈ 421 µM) | 1000 µg/mL (≈ 3360 µM) | 100 µg/mL (≈ 336 µM) |
| Fc1ccc2oc(-c3cnn(-c4ccc(F)c(F)c4)c3)nc2c1 | 200 µg/mL (≈ 634 µM) | 500 µg/mL (≈ 1590 µM) | 250 µg/mL (≈ 793 µM) | 250 µg/mL (≈ 793 µM) | 50 µg/mL (≈ 159 µM) |
| Cc1cc(C)c(O)c(C(=O)c2cnn(-c3ccc(F)c(F)c3)c2)c1 | 500 µg/mL (≈ 1520 µM) | 500 µg/mL (≈ 1520 µM) | 500 µg/mL (≈ 1520 µM) | 1000 µg/mL (≈ 3050 µM) | 250 µg/mL (≈ 761 µM) |
| O=C(c1cnn(-c2ccc(F)c(F)c2)c1)c1cc(Br)ccc1O | 100 µg/mL (≈ 264 µM) | 125 µg/mL (≈ 330 µM) | 500 µg/mL (≈ 1320 µM) | > 1000 µg/mL | 500 µg/mL (≈ 1320 µM) |
| O/N=C(/c1cnn(-c2ccc(F)c(F)c2)c1)c1cc(F)ccc1O | 250 µg/mL (≈ 750 µM) | 500 µg/mL (≈ 1500 µM) | 500 µg/mL (≈ 1500 µM) | 1000 µg/mL (≈ 3000 µM) | 500 µg/mL (≈ 1500 µM) |
| O=C(c1cnn(-c2ccc(F)c(F)c2)c1)c1cc(F)cc(Cl)c1O | 500 µg/mL (≈ 1420 µM) | 1000 µg/mL (≈ 2840 µM) | 500 µg/mL (≈ 1420 µM) | 250 µg/mL (≈ 709 µM) | 500 µg/mL (≈ 1420 µM) |
| O=C(c1cnn(-c2ccc(F)c(F)c2)c1)c1cc(Cl)ccc1O | 500 µg/mL (≈ 1490 µM) | 1000 µg/mL (≈ 2990 µM) | 250 µg/mL (≈ 747 µM) | 500 µg/mL (≈ 1490 µM) | 500 µg/mL (≈ 1490 µM) |
| GENTAMICIN | 1 µg/mL | 0.25 µg/mL | 0.05 µg/mL |  | 1 µg/mL |
| CCn1cc(C(=O)O)c(=O)c2cc(F)c(N3CCNCC3)cc21 [NORFLOXACIN] | 100 µg/mL (≈ 313 µM) | 10 µg/mL (≈ 31.3 µM) | 10 µg/mL (≈ 31.3 µM) |  | 10 µg/mL (≈ 31.3 µM) |
| O/N=C(/c1cnn(-c2ccc(F)c(F)c2)c1)c1cc(Br)ccc1O | 1000 µg/mL (≈ 2540 µM) | 500 µg/mL (≈ 1270 µM) | 200 µg/mL (≈ 507 µM) | 500 µg/mL (≈ 1270 µM) | 100 µg/mL (≈ 254 µM) |
| Fc1ccc(-n2cc(-c3nc4cc(Br)ccc4o3)cn2)cc1F | 250 µg/mL (≈ 665 µM) | 250 µg/mL (≈ 665 µM) | 250 µg/mL (≈ 665 µM) | 500 µg/mL (≈ 1330 µM) | 250 µg/mL (≈ 665 µM) |
